This passage reports Ki results from patent US9725468B2, “C5-spiro iminothiazine dioxides as BACE inhibitors, compositions, and their use” (Merck Sharp & Dohme Corp., priority 2013, dated 2017).

Assay [1] has as its target soluble human BACE1 catalytic domain (Homo sapiens, UniProt P56817). The assay is described as follows: BACE1 HTRF FRET Assay. It is filed as biochemical. Conditions: Ki calculated from IC50 using the Cheng-Prusoff equation; QSY7-APPswe-Eu substrate 200 nM, pH 5.0. From the text: Na^+-Acetate pH 5.0; 1% Brij-35; Glycerol; Dimethyl Sulfoxide (DMSO); Recombinant human soluble BACE1 catalytic domain (>95% pure); APP Swedish mutant peptide substrate (QSY7-APP^swe-Eu): QSY7-EISEVNLDAEFC-Europium-amide.
A homogeneous time-resolved FRET assay can be used to determine IC50 values for inhibitors of the soluble human BACE1 catalytic domain. This assay monitors the increase of 620 nm fluorescence that resulted from BACE1 cleavage of an APPswedish APP^swe mutant peptide FRET substrate (QSY7-EISEVNLDAEFC-Europium-amide). This substrate contains an N-terminal QSY7 moiety that serves as a quencher of the C-terminal Europium fluorophore (620 nm Em). In the absence of enzyme activity, 620 nm fluorescence is low in the assay and increased linearly over 3 hours in the presence of uninhibited BACE1 enzyme. Inhibition of BACE1 cleavage of the QSY7-APP^swe-Eu substrate by inhibitors is manifested as a suppression of 620 nm fluorescence.
Varying concentrations of inhibitors at 3× the final desired concentration in a volume of 10 ul are preincubated with purified human BACE1 catalytic domain (3 nM in 10 μl) for 30 minutes at 30° C. in reaction buffer containing 20 mM Na-Acetate pH 5.0, 10% glycerol, 0.1% Brij-35 and 7.5% DSMO. Reactions are initiated by addition of 10 μl of 600 nM QSY7-APP^swe-Eu substrate (200 nM final) to give a final reaction volume of 30 μl in a 384 well Nunc HTRF plate. The reactions are incubated at 30° C. for 1.5 hours. The 620 nm fluorescence is then read on a Rubystar HTRF plate reader (BMG Labtechnologies) using a 50 millisecond delay followed by a 400 millisecond acquisition time window. Inhibitor IC50 values are derived from non-linear regression analysis of concentration response curves. Ki values are then calculated from IC50 values using the Cheng-Prusoff equation using a previously determined […] for the QSY7-APP^swe-Eu substrate at BACE1.

Assay [2] has as its target T1, purified human autoBACE-2 (Homo sapiens, UniProt Q9Y5Z0).
T1 sequence (Q9Y5Z0 63-473 limits assumed): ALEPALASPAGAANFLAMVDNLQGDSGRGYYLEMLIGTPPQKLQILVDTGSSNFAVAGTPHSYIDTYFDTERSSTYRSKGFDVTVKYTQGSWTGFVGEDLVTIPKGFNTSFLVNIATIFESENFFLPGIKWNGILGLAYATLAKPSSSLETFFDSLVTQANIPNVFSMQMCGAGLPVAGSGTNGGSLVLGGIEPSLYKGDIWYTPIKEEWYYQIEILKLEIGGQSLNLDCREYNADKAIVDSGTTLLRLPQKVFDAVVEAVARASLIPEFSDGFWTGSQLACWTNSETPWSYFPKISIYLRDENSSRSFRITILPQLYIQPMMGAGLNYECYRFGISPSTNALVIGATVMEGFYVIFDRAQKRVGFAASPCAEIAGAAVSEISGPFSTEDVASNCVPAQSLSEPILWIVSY
The assay is described as follows: BACE-2 Assay (BACE-HTRF assay). The following applies: Ki calculated from IC50 using the Cheng-Prusoff equation; QSY7-EISEVNLDAEFC-Eu-amide substrate 200 nM, pH 5.0; read-out: BACE2 Ki. It is filed as biochemical. The procedure: Inhibitor ICsos at purified human autoBACE-2 are determined in a time-resolved endpoint proteolysis assay that measures hydrolysis of the QSY7-EISEVNLDAEFC-Eu-amide FRET peptide substrate (BACE-HTRF assay). BACE-mediated hydrolysis of this peptide results in an increase in relative fluorescence (RFU) at 620 nm after excitation with 320 nm light. Inhibitor compounds, prepared at 3× the desired final concentration in 1×BACE assay buffer (20 mM sodium acetate pH 5.0, 10% glycerol, 0.1% Brij-35) supplemented with 7.5% DMSO are preincubated with an equal volume of autoBACE-2 enzyme diluted in 1×BACE assay buffer (final enzyme concentration 1 nM) in black 384-well NUNC plates for 30 minutes at 30° C. The assay is initiated by addition of an equal volume of the QSY7-EISEVNLDAEFC-Eu-amide substrate (200 nM final concentration, […]) prepared in 1×BACE assay buffer supplemented with 7.5% DMSO and incubated for 90 minutes at 30° C. DMSO is present at 5% final concentration in the assay. Following laser excitation of sample wells at 320 nm, the fluorescence signal at 620 nm is collected for 400 ms following a 50 μs delay on a RUBYstar HTRF plate reader (BMG Labtechnologies). Raw RFU data is normalized to maximum (1.0 nM BACE/DMSO) and minimum (no enzyme/DMSO) RFU values. IC50s are determined by nonlinear regression analysis (sigmoidal dose response, variable slope) of percent inhibition data with minimum and maximum values set to 0 and 100 percent respectively. Similar IC50s are obtained when using raw RFU data. The Ki values are calculated from the IC50 using the Cheng-Prusoff equation.

Molecules are shown by their SMILES.

Chain of soluble human BACE1 catalytic domain (P56817 75-416 limits assumed): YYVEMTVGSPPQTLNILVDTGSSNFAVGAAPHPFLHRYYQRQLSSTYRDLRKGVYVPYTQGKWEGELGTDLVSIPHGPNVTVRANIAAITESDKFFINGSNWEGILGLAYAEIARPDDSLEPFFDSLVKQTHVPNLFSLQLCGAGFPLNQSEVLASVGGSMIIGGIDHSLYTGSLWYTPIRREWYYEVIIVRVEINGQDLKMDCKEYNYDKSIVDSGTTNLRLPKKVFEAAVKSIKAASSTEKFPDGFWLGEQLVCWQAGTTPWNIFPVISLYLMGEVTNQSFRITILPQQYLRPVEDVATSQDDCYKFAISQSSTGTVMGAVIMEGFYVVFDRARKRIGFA

`CC1(C)C(=N)N[C@@]2(CCOc3ccc(NC(=O)c4ccc(OC(F)F)cn4)cc32)CS1(=O)=O` [Example C-10]: the Ki (as a rule, a measure of affinity in units of concentration, obtained from inhibition or displacement) in assay [1] is 8 nM; in assay [2], 22 nM.

Regarding `CC1(C)C(=N)N[C@@]2(CCCc3ccc(NC(=O)c4ccc(OC(F)(F)F)cn4)cc32)CS1(=O)=O` [Example G-16], the Ki in assay [1] is 13 nM; in assay [2] it was 51 nM.

As to `CC1(C)C(=N)N[C@@]2(CCCc3ccc(NC(=O)c4ccc(OC(F)F)cn4)cc32)CS1(=O)=O` [Example G-15], the Ki in assay [1] was 12 nM; in assay [2] it was 22 nM.

Take `CC1(C)C(=N)N[C@@]2(COCc3ccc(NC(=O)c4ccc(OC(F)(F)F)cn4)cc32)CS1(=O)=O` [Example E-3]: the Ki in assay [1] was 50 nM; in assay [2] it was 175 nM.

In the case of `CC1(C)C(=N)N[C@@]2(CCOc3ccc(NC(=O)c4ccc(OCF)cn4)cc32)CS1(=O)=O` [Example C-13], the inhibitory constant (Ki) in assay [1] is 14 nM; in assay [2], 8 nM.

On to `C#CCOc1cnc(C(=O)Nc2ccc3c(c2)[C@]2(CCC3)CS(=O)(=O)C(C)(C)C(=N)N2)cn1` [Example G-5], for which the inhibitory constant (Ki) is 7 nM in assay [1] and 20 nM in assay [2].

For the molecule `CC1(C)C(=N)N[C@@]2(CCOc3ccc(NC(=O)c4cnc(C(F)(F)F)cn4)cc32)CS1(=O)=O` [Example C-24], the inhibition constant Ki was 39 nM in assay [1] and 184 nM in assay [2].

For the molecule `Cc1nc(C(=O)Nc2ccc3c(c2)[C@]2(CCO3)CS(=O)(=O)C(C)(C)C(=N)N2)co1` [Example C-2], the Ki in assay [1] is 18 nM; in assay [2], 3 nM.

Consider `CC1(C)C(=N)N[C@@]2(COCc3ccc(NC(=O)c4ccc(OC(F)F)cn4)cc32)CS1(=O)=O` [Example E-18], for which the inhibition constant (Ki) in assay [1] is 34 nM; in assay [2] it was 76 nM.

As to `Cc1nc(C(=O)Nc2ccc3c(c2)[C@]2(CCO3)CS(=O)(=O)C(C)(C)C(=N)N2)no1` [Example C-7], the Ki was 47 nM in assay [1] and 4 nM in assay [2].

On to `CC1(C)C(=N)N[C@@]2(CCCc3ccc(NC(=O)c4ccc(F)cn4)cc32)CS1(=O)=O` [Example G-14], for which the Ki in assay [1] is 55 nM; in assay [2], 7 nM.

Regarding `C#CCOc1ccc(C(=O)Nc2ccc3c(c2)[C@]2(CCO3)CS(=O)(=O)C(C)(C)C(=N)N2)nc1` [Example C-19], the Ki in assay [1] is 7 nM; in assay [2] it was 48 nM.

In the case of `CC1(C)C(=N)N[C@@]2(CCOc3ccc(NC(=O)c4cnsn4)cc32)CS1(=O)=O` [Example C-4], the results for the Ki in assay [1] and in assay [2] were 3 nM and 5 nM, respectively.

With `CC1(C)C(=N)N[C@@]2(COCc3ccc(NC(=O)c4ccc(OCF)cn4)cc32)CS1(=O)=O` [Example E-24], the values for the Ki in assay [1] and in assay [2] were 57 nM and 13 nM, respectively.

Take `COc1cnc(C(=O)Nc2ccc3c(c2)[C@]2(COC3)CS(=O)(=O)C(C)(C)C(=N)N2)cn1` [Example E-22]: the Ki in assay [1] is 334 nM; in assay [2] it was 187 nM.

In the case of `Cc1cc(C#N)cnc1C(=O)Nc1ccc2c(c1)[C@]1(COC2)CS(=O)(=O)C(C)(C)C(=N)N1` [Example E-5], the Ki in assay [1] was 6 nM; in assay [2], 8 nM.

In the case of `CC1(C)C(=N)N[C@@]2(COCc3ccc(NC(=O)c4cnsn4)cc32)CS1(=O)=O` [Example E-9], the Ki in assay [1] was 171 nM; in assay [2], 23 nM.

Consider `CC1(C)C(=N)N[C@@]2(COCc3ccc(NC(=O)c4ccc(Cl)cn4)cc32)CS1(=O)=O` [Example D-1], for which the results for the Ki in assay [1] and in assay [2] were 23 nM and 7 nM, respectively.

For the molecule `CC1(C)C(=N)N[C@@]2(CCOc3ccc(NC(=O)c4cnc(OCCF)cn4)cc32)CS1(=O)=O` [Example C-12], the Ki in assay [1] is 45 nM; in assay [2], 98 nM.

Regarding `CC1(C)C(=N)N[C@@]2(CCCc3ccc(NC(=O)c4cnc(OCCF)cn4)cc32)CS1(=O)=O` [Example G-17], the Ki in assay [1] is 140 nM; in assay [2] it was 156 nM.

`Cn1cc(Cl)c(C(=O)Nc2ccc3c(c2)[C@]2(CCC3)CS(=O)(=O)C(C)(C)C(=N)N2)n1` [Example G-6]: the inhibitory constant (Ki) in assay [1] was 17 nM; in assay [2] it was 1 nM.

Consider `CC1(C)C(=N)N[C@@]2(COCc3ccc(NC(=O)c4ccc(C(F)(F)F)cn4)cc32)CS1(=O)=O` [Example E-6], for which the inhibitory constant (Ki) was 41 nM in assay [1] and 155 nM in assay [2].

Take `Cc1cn(C)nc1C(=O)Nc1ccc2c(c1)[C@]1(CCO2)CS(=O)(=O)C(C)(C)C(=N)N1` [Example C-14]: the figures for the Ki in assay [1] and in assay [2] were 15 nM and 1 nM, respectively.

Regarding `CC1(C)C(=N)N[C@@]2(CCOc3ccc(NC(=O)c4ccc(F)cn4)cc32)CS1(=O)=O` [Example C-9], the Ki was 33 nM in assay [1] and 5 nM in assay [2].

Consider `CC1(C)C(=N)N[C@@]2(CCCc3ccc(NC(=O)c4ccc(C(F)(F)F)cn4)cc32)CS1(=O)=O` [Example G-24], for which the Ki in assay [1] is 8 nM; in assay [2], 30 nM.

Take `CC1(C)C(=N)N[C@@]2(CCOc3ccc(NC(=O)c4ccc(C(F)(F)F)cn4)cc32)CS1(=O)=O` [Example C-6]: the inhibition constant Ki in assay [1] is 10 nM; in assay [2], 50 nM.

On to `Cc1cc(C#N)cnc1C(=O)Nc1ccc2c(c1)[C@]1(CCC2)CS(=O)(=O)C(C)(C)C(=N)N1` [Example G-10], for which the Ki in assay [1] is 2 nM; in assay [2], 3 nM.

For `CC1(C)C(=N)N[C@@]2(COCc3ccc(NC(=O)c4cnc(OCCF)cn4)cc32)CS1(=O)=O` [Example E-17], the Ki in assay [1] was 326 nM; in assay [2], 443 nM.

In the case of `CC1(C)C(=N)N[C@@]2(CCCc3ccc(NC(=O)c4ccn(C(F)F)n4)cc32)CS1(=O)=O` [Example G-4], the Ki in assay [1] is 4 nM; in assay [2], 1 nM.

For `C#CCOc1cnc(C(=O)Nc2ccc3c(c2)[C@]2(COC3)CS(=O)(=O)C(C)(C)C(=N)N2)cn1` [Example E-4], the Ki in assay [1] was 20 nM; in assay [2], 72 nM.

Turning to `COc1ccc(C(=O)Nc2ccc3c(c2)[C@]2(COC3)CS(=O)(=O)C(C)(C)C(=N)N2)nc1` [Example E-10], the Ki is 118 nM in assay [1] and 29 nM in assay [2].

With `CC1(C)C(=N)N[C@@]2(CCCc3ccc(NC(=O)c4ncc(Cl)cc4F)cc32)CS1(=O)=O` [Example G-1], the values for the Ki in assay [1] and in assay [2] were 11 nM and 2 nM, respectively.

Regarding `CC1(C)C(=N)N[C@@]2(CCCc3ccc(NC(=O)c4cnc(C(F)(F)F)cn4)cc32)CS1(=O)=O` [Example G-12], the Ki in assay [1] was 57 nM; in assay [2], 163 nM.

For the molecule `C#CCOc1cnc(C(=O)Nc2ccc3c(c2)[C@]2(CCO3)CS(=O)(=O)C(C)(C)C(=N)N2)cn1` [Example C-3], the Ki in assay [1] is 3 nM; in assay [2], 14 nM.

`CC1(C)C(=N)N[C@@]2(CCOc3ccc(NC(=O)c4ncc(Cl)cc4F)cc32)CS1(=O)=O` [Example C-17]: the Ki is 8 nM in assay [1] and 2 nM in assay [2].
